How the values were obtained:
Type in all cases: cell-based, Escherichia coli
Conditions in all cases: MHB, 37°C, 24 h, triplicate
[1] = tested on: E. coli BL21(DE3); test: MIC, broth microdilution, retransformed E. coli BL21(DE3)
Protocol: (§1) Escherichia coli DH5α, E. coli BL21(DE3), and E. coli JM109 were utilized in this study.
(§2) The MICs were determined using the broth microdilution method in 96-well microtiter plates ([Wiegand et al., 2008]). In brief, a 1:100 dilution of the mid-exponential phase bacterial culture (OD600 = 0.5), consisting of 5 μL (1 × 10^5 CFU/mL), was introduced into polypropylene 96-well plates. These plates contained a two-fold dilution series of AMP in a total volume of 100 μL MHB per well. The incubation of the plates occurred at 37°C in a humidity chamber. The MIC was identified as the lowest concentration that hindered visible bacterial growth after 24 h of incubation. Each experiment was conducted in triplicate.
(§3) Before washing down the colonies, we randomly selected two clones from each plate containing distinct AMP. Colony PCRs were conducted using M13 primer pairs to validate the presence of inserts and determine their sizes. The selected colonies were then subjected to sequencing. The specific details are provided in Supplementary Table S2. Following that, plasmids were isolated using the Plasmid Midiprep Kit (Zomanbio, ZP103) following the manufacturer’s guidelines. After the plasmids were successfully reintroduced into E. coli JM109 and E. coli BL 21(DE3), the MICs of the transformed strains against the AMP used for selection were tested. This testing process was carried out in triplicate.
(§4) Following validation, the colonies displaying resistance underwent additional testing via MIC assessments for the remaining four AMPs that were not employed during the selection process. This experimental procedure was carried out in triplicate.

[2] = tested on: E. coli DH5α; test: MIC, broth microdilution, E. coli DH5α carrying pUC118 or resistance-conferring plasmids
Protocol: as §1, §2, §4

[3] = tested on: E. coli JM109; test: MIC, broth microdilution, retransformed E. coli JM109
Protocol: as §1, §2, §3, §4

Substance Colistin [CST] has an MIC ([1]; colony pUC118-BL21(DE3) (control, no insert)) of 1 µg/mL, an MIC ([1]; colony pUC118-FCST1-BL21(DE3) (feces insert 1 selected against colistin)) of 2 µg/mL and an MIC ([1]; colony pUC118-FCST2-BL21(DE3) (feces insert 2 selected against colistin)) of 2 µg/mL. For the same substance, the MIC ([1]; colony pUC118-FGQ1-BL21(DE3) (feces insert 1 selected against melittin)) was 2 µg/mL, the MIC ([1]; colony pUC118-FGQ2- BL21(DE3) (feces insert 2 selected against melittin)) was 2 µg/mL and the MIC ([1]; colony pUC118-FIB1-BL21(DE3) (feces insert 1 selected against iseganan)) was 1 µg/mL. For the same substance, the MIC ([1]; colony pUC118-FIB2-BL21(DE3) (feces insert 2 selected against iseganan)) was 2 µg/mL, the MIC ([1]; colony pUC118-FPB1-BL21(DE3) (feces insert 1 selected against polymyxin B)) was 4 µg/mL and the MIC ([1]; colony pUC118-FPB2-BL21(DE3) (feces insert 2 selected against polymyxin B)) was 2 µg/mL. It also gave an MIC ([1]; colony pUC118-FSA1-BL21(DE3) (feces insert 1 selected against cathelicidin-DM)) of 2 µg/mL, an MIC ([1]; colony pUC118-FSA2-BL21(DE3) (feces insert 2 selected against cathelicidin-DM)) of 2 µg/mL and an MIC ([1]; colony pUC118-SCST1-BL21(DE3) (soil insert 1 selected against colistin)) of 2 µg/mL. It also gave an MIC ([1]; colony pUC118-SCST2-BL21(DE3) (soil insert 2 selected against colistin)) of 2 µg/mL, an MIC ([1]; colony pUC118-SGQ1-BL21(DE3) (soil insert 1 selected against melittin)) of 1 µg/mL and an MIC ([1]; colony pUC118-SGQ2-BL21(DE3) (soil insert 2 selected against melittin)) of 1 µg/mL. For the same substance, the MIC ([1]; colony pUC118-SIB1-BL21(DE3) (soil insert 1 selected against iseganan)) was 1 µg/mL, the MIC ([1]; colony pUC118-SIB2-BL21(DE3) (soil insert 2 selected against iseganan)) was 1 µg/mL and the MIC ([1]; colony pUC118-SPB1-BL21(DE3) (soil insert 1 selected against polymyxin B)) was 1 µg/mL. The MIC ([1]; colony pUC118-SPB2-BL21(DE3) (soil insert 2 selected against polymyxin B)) was 2 µg/mL, the MIC ([1]; colony pUC118-SSA1-BL21(DE3) (soil insert 1 selected against cathelicidin-DM)) was 2 µg/mL and the MIC ([1]; colony pUC118-SSA2-BL21(DE3) (soil insert 2 selected against cathelicidin-DM)) was 2 µg/mL. For the same substance, the MIC ([2]; E. coli DH5α containing pUC118 plasmids) was 0.25 µg/mL, the MIC ([2]; colony pUC118-DH5α (control, no insert)) was 0.25 µg/mL and the MIC ([2]; colony pUC118-FCST1-DH5α (feces insert 1 selected against colistin)) was 0.5 µg/mL. For the same substance, the MIC ([2]; colony pUC118-FCST2-DH5α (feces insert 2 selected against colistin)) was 0.5 µg/mL, the MIC ([2]; colony pUC118-FGQ1-DH5α (feces insert 1 selected against melittin)) was 0.5 µg/mL and the MIC ([2]; colony pUC118-FGQ2-DH5α (feces insert 2 selected against melittin)) was 0.5 µg/mL. It also gave an MIC ([2]; colony pUC118-FIB1-DH5α (feces insert 1 selected against iseganan)) of 0.25 µg/mL, an MIC ([2]; colony pUC118-FIB2-DH5α (feces insert 2 selected against iseganan)) of 1 µg/mL and an MIC ([2]; colony pUC118-FPB1-DH5α (feces insert 1 selected against polymyxin B)) of 2 µg/mL. For the same substance, the MIC ([2]; colony pUC118-FPB2-DH5α (feces insert 2 selected against polymyxin B)) was 1 µg/mL, the MIC ([2]; colony pUC118-FSA1-DH5α (feces insert 1 selected against cathelicidin-DM)) was 0.5 µg/mL and the MIC ([2]; colony pUC118-FSA2-DH5α (feces insert 2 selected against cathelicidin-DM)) was 0.5 µg/mL. It also gave an MIC ([2]; colony pUC118-SCST1-DH5α (soil insert 1 selected against colistin)) of 0.5 µg/mL, an MIC ([2]; colony pUC118-SCST2-DH5α (soil insert 2 selected against colistin)) of 1 µg/mL and an MIC ([2]; colony pUC118-SGQ1-DH5α (soil insert 1 selected against melittin)) of 0.25 µg/mL. It also gave an MIC ([2]; colony pUC118-SGQ2-DH5α (soil insert 2 selected against melittin)) of 0.25 µg/mL, an MIC ([2]; colony pUC118-SIB1-DH5α (soil insert 1 selected against iseganan)) of 0.25 µg/mL and an MIC ([2]; colony pUC118-SIB2-DH5α (soil insert 2 selected against iseganan)) of 0.25 µg/mL. It also gave an MIC ([2]; colony pUC118-SPB1-DH5α (soil insert 1 selected against polymyxin B)) of 0.25 µg/mL, an MIC ([2]; colony pUC118-SPB2-DH5α (soil insert 2 selected against polymyxin B)) of 0.5 µg/mL and an MIC ([2]; colony pUC118-SSA1-DH5α (soil insert 1 selected against cathelicidin-DM)) of 0.5 µg/mL. For the same substance, the MIC ([2]; colony pUC118-SSA2-DH5α (soil insert 2 selected against cathelicidin-DM)) was 1 µg/mL, the MIC ([3]; colony pUC118-FCST1-JM109 (feces insert 1 selected against colistin)) was 0.5 µg/mL and the MIC ([3]; colony pUC118-FCST2-JM109 (feces insert 2 selected against colistin)) was 1 µg/mL. It also gave an MIC ([3]; colony pUC118-FGQ1-JM109 (feces insert 1 selected against melittin)) of 0.5 µg/mL, an MIC ([3]; colony pUC118-FGQ2-JM109 (feces insert 2 selected against melittin)) of 0.5 µg/mL and an MIC ([3]; colony pUC118-FIB1-JM109 (feces insert 1 selected against iseganan)) of 0.25 µg/mL. It also gave an MIC ([3]; colony pUC118-FIB2-JM109 (feces insert 2 selected against iseganan)) of 0.5 µg/mL, an MIC ([3]; colony pUC118-FPB1-JM109 (feces insert 1 selected against polymyxin B)) of 1 µg/mL and an MIC ([3]; colony pUC118-FPB2-JM109 (feces insert 2 selected against polymyxin B)) of 0.5 µg/mL. It also gave an MIC ([3]; colony pUC118-FSA1-JM109 (feces insert 1 selected against cathelicidin-DM)) of 2 µg/mL, an MIC ([3]; colony pUC118-FSA2-JM109 (feces insert 2 selected against cathelicidin-DM)) of 0.5 µg/mL and an MIC ([3]; colony pUC118-JM109 (control, no insert)) of 0.25 µg/mL. For the same substance, the MIC ([3]; colony pUC118-SCST1-JM109 (soil insert 1 selected against colistin)) was 0.5 µg/mL, the MIC ([3]; colony pUC118-SCST2-JM109 (soil insert 2 selected against colistin)) was 0.5 µg/mL and the MIC ([3]; colony pUC118-SGQ1-JM109 (soil insert 1 selected against melittin)) was 0.25 µg/mL. It also gave an MIC ([3]; colony pUC118-SGQ2-JM109 (soil insert 2 selected against melittin)) of 0.25 µg/mL, an MIC ([3]; colony pUC118-SIB1-JM109 (soil insert 1 selected against iseganan)) of 0.25 µg/mL and an MIC ([3]; colony pUC118-SIB2-JM109 (soil insert 2 selected against iseganan)) of 0.25 µg/mL. The MIC ([3]; colony pUC118-SPB1-JM109 (soil insert 1 selected against polymyxin B)) was 0.25 µg/mL, the MIC ([3]; colony pUC118-SPB2-JM109 (soil insert 2 selected against polymyxin B)) was 0.5 µg/mL and the MIC ([3]; colony pUC118-SSA1-JM109 (soil insert 1 selected against cathelicidin-DM)) was 0.5 µg/mL. For the same substance, the MIC ([3]; colony pUC118-SSA2-JM109 (soil insert 2 selected against cathelicidin-DM)) was 0.25 µg/mL.

— paper PMC10999558, “Analyzing resistome in soil and Human gut: a study on the characterization and risk evaluation of antimicrobial peptide resistance” (Frontiers in Microbiology, 2024)
